This note sets out measurements from ChEMBL document CHEMBL1128961 (Bioorg Med Chem Lett, 1996).

Assay [1] deals with T1, Acetylcholinesterase (Bos taurus) (UniProt P23795).
T1 sequence (whole entry): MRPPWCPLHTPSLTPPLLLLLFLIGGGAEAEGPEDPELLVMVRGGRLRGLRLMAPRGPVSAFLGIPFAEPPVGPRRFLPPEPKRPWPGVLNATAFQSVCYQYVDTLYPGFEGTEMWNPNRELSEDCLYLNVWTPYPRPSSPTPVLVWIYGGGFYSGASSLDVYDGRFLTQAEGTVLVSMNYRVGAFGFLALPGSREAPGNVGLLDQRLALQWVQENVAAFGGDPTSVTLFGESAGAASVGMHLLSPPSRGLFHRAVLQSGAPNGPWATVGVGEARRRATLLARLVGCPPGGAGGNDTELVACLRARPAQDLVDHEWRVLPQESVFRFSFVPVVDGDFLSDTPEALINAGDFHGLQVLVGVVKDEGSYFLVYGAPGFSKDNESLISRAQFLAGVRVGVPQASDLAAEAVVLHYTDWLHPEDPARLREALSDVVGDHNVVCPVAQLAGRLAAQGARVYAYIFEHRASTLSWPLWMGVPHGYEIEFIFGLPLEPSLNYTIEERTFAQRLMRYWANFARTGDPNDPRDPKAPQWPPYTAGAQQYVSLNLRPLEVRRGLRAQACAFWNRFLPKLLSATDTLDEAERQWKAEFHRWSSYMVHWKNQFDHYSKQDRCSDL
Description: Kinetic constant for inhibition of fetal bovine serum acetylcholinesterase

The target in another assay is T2, Acetylcholinesterase (Bos taurus, UniProt P23795).
T2 sequence (P23795 whole entry): T1 sequence (whole entry)
Kind of assay: Dissociation constant for the inhibition of fetal bovine serum acetylcholinesterase was determined..

As a reminder, the Ki is a dissociation constant, usually derived from enzyme kinetics or from competition with a known ligand. On to `C/C=C1\C2C=C(C)C[C@]1(N)c1ccc(O)nc1C2(C)C` (mixture of isomers), for which the k off in assay [1] came out at 0.000217 s⁻¹. The same molecule returned a Ki at Acetylcholinesterase of 16.7 nM.
`C/C=C1\[C@H]2C=C(C)C[C@]1(N)c1ccc(=O)[nH]c1C2` (stereo in doubt; form 1): the k off in assay [1] was 0.000367 s⁻¹.
In the case of `C/C=C1\[C@H]2C=C(C)C[C@]1(N)c1ccc(=O)[nH]c1C2` (stereo in doubt; form 1) [HUPERZINE A], the Ki at Acetylcholinesterase is 23.6 nM.
Turning to `C/C=C1\[C@H]2C=C(C)C[C@]1(N)c1ccc(=O)[nH]c1C2` (stereo in doubt; form 2), the k off in assay [1] stood at 0.000334 s⁻¹.
The molecule `C/C=C1\[C@H]2C=C(C)C[C@]1(N)c1ccc(=O)[nH]c1C2` (stereo in doubt; form 2) [HUPERZINE A] registered a Ki at Acetylcholinesterase of 5.9 nM.
